This is an account of results in article PMC11578313, “Miniaturized Modular Click Chemistry‐enabled Rapid Discovery of Unique SARS‐CoV‐2 M^pro Inhibitors With Robust Potency and Drug‐like Profile” (Advanced Science, 2024).

A short description of data set [1]: in vitro. The settings on record: African green monkey.
Data set [2] concerns SARS‐CoV‐2 (hCoV‐19/Korea/KCDC06/2020, wild type). As to the kind of experiment: microbe, parasite or virus in culture. Type of data set: cell-based.
A short description of data set [3]: in vitro. The settings on record: human.
Data set [4] relates to SARS‐CoV‐2. As to the kind of experiment: microbe, parasite or virus in culture. The class given is cell-based.
Data set [5] has as its target SARS‐CoV‐2 M^pro (Severe acute respiratory syndrome coronavirus 2, UniProt P0DTD1). As to the kind of experiment: SARS‐CoV‐2 main protease enzymatic assay (FRET inhibitor screening kit). Type of data set: biochemical.
The conditions of data set [6]: cytotoxicity; cited from earlier work.
For data set [7] the following is noted: cited from earlier work.
Data set [8] deals with SARS-CoV-2 M^pro. Particulars: cited from earlier work.
The subject of data set [9] is SARS‐CoV‐2. The settings on record: Vero E6; cited from earlier work.
The subject of data set [10] is MRC‐5 cells. Particulars: human.
The nature of data set [11]: in vitro. The settings on record: rhesus monkey.
Data set [12] concerns SARS‐CoV‐2 Delta (hCoV‐19/Korea/KDCA119861/2021). Put plainly: microbe, parasite or virus in culture. Type of data set: cell-based. The settings on record: Severe acute respiratory syndrome coronavirus 2; Calu‐3; read-out: EC50 ± SD, SARS‐CoV‐2 Delta.
Data set [13] is described as follows: in vitro. The settings on record: human. The source holds these as a separate data set.
The subject of data set [14] is MERS‐CoV. As to the kind of experiment: microbe, parasite or virus in culture. The class given is cell-based. The settings on record: Middle East respiratory syndrome-related coronavirus, Huh-7, read-out: EC50 ± SD, MERS‐CoV.
The test system of data set [15] is SARS‐CoV‐2 Omicron (hCoV‐19/Korea/KDCA447321/2021). Put plainly: microbe, parasite or virus in culture. The class given is cell-based. Particulars: Severe acute respiratory syndrome coronavirus 2, Calu-3, read-out: EC50 ± SD, SARS‐CoV‐2 Omicron.
In data set [16] the test system is HCoV‐OC43. Put plainly: microbe, parasite or virus in culture. The class given is cell-based. The settings on record: Betacoronavirus 1, OC43, MRC5, read-out: EC50 ± SD, HCoV‐OC43.
A short description of data set [17]: in vivo. Particulars: ICR, mouse, po, p.o. 10 mg kg^−1 with 20 mg kg^−1 ritonavir, ICR mice, n = 3.
Data set [18] relates to HCoV‐229E. Put plainly: microbe, parasite or virus in culture. Type of data set: cell-based. Particulars: Human coronavirus 229E, MRC5, read-out: EC50 ± SD, HCoV‐229E.
Data set [19] deals with SARS‐CoV‐2 Gamma (hCoV‐19/Korea/KDCA95637/2021). As to the kind of experiment: microbe, parasite or virus in culture. Type of data set: cell-based. The settings on record: Severe acute respiratory syndrome coronavirus 2; Calu‐3; read-out: EC50 ± SD, SARS‐CoV‐2 Gamma.
Data set [20] deals with HCoV‐NL63. As to the kind of experiment: microbe, parasite or virus in culture. Type of data set: cell-based. Particulars: Human coronavirus NL63, LLC-MK2, read-out: EC50 ± SD, HCoV‐NL63.
[21] abbreviates: Severe acute respiratory syndrome coronavirus 2, Calu-3, Calu‐3 cells, with CP‐100356, read-out: EC50 ± SD, Calu‐3 cells, with P‐gp inhibitor.
Setting [22] is: Severe acute respiratory syndrome coronavirus 2, Calu-3, Calu‐3 cells, without CP‐100356, read-out: EC50 ± SD, Calu‐3 cells, without P‐gp inhibitor.
[23] abbreviates: Severe acute respiratory syndrome coronavirus 2, Vero cells, with CP‐100356, read-out: EC50 ± SD, Vero cells, with P‐gp inhibitor.

The structures appear in SMILES notation. Where “and” joins values, the source holds several entries; their conditions need not be identical. Equal entries are not always repeated. Where two headings read alike, the source gives them in different places. Some results are limits rather than exact numbers.

In the case of `Cc1cncc(C(=O)N2C[C@H]3CC[C@@H](C2)N3C(c2cccc(F)c2)c2cccc(F)c2)c1` [AA‐625, reference compound], the CC50 at 2 day in data set [1] was 43900 ± 2940 nM; in [3] (CC50 (Table 3), Calu‐3 cells), 42900 ± 414 nM; in data set [3] (CC50, Calu‐3 cells, MTT assay), more than 100000 nM. For the same compound, the EC50 was 148 ± 7 nM in data set [2] (Calu‐3 cells, without CP‐100356, read-out: EC50 ± SD, Calu‐3 cells, without P‐gp inhibitor); less than 10 nM in data set [2] (setting [21]); 150 nM in data set [2] (setting [22]); 2020 ± 76 nM in data set [4] (setting [23]); 2050 ± 56 nM in [4] (Severe acute respiratory syndrome coronavirus 2, Vero cells, without CP‐100356, read-out: EC50 ± SD, Vero cells, without P‐gp inhibitor). For the same compound, the IC50 (as a rule, the concentration that inhibits the measured activity by half) in data set [5] is 900 nM and 904 nM. In addition, the “inhibition of M^pro enzymatic activity, first round of screening” value in data set [5] was 57%. Besides, in [5] (5 μM, read-out: Inhibitionrate at @5μM), the inhibition at 5 µM was 87.9%. Moreover, the CC50 in data set [6] was 22500 nM.
Regarding `O=C(NCc1cccs1)C1CN(C(=O)c2cccnc2)CCN1c1ccc(Cl)c(Cl)c1` (centres unmarked) [GC‐14, reference compound], in data set [7], the “half‐life” value is given as 1.72 h. The oral bioavailability in [7] is 7.2%. In addition, the IC50 in data set [8] was 400 nM; in data set [5], 800 nM and 750 nM. Moreover, the EC50 in data set [2] (setting [21]) is 755 ± 46 nM; in [2] (setting [22]), 1420 ± 57 nM; in data set [9], 1100 nM; in data set [4] (setting [23]), 3420 ± 443 nM. In data set [3] (CC50, Calu‐3 cells, MTT assay), this compound returned a CC50 at 2 day of more than 100000 nM. The “inhibition of M^pro enzymatic activity, first round of screening” value in data set [5] worked out at 98%.
On to `CC(C)(C)[C@H](NC(=O)C(F)(F)F)C(=O)N1C[C@H]2[C@@H]([C@H]1C(=O)N[C@H](C#N)C[C@@H]1CCNC1=O)C2(C)C` [Nirmatrelvir, reference compound], for which the CC50 at 2 day was more than 100000 nM in data set [1]; more than 100000 nM in data set [3] (CC50 (Table 3), Calu‐3 cells); more than 100000 nM in data set [3] (CC50, Calu‐3 cells, MTT assay). Further, the CC50 in data set [10], in data set [11], in [13] and in data set [3] was more than 100000 nM in each case. Besides, the EC50 in data set [2] (Severe acute respiratory syndrome coronavirus 2, Calu-3, read-out: EC50, anti‐SARS‐CoV‐2 activity in Calu‐3 cells (Figure 3B)) was 1950 nM; in data set [2] (Severe acute respiratory syndrome coronavirus 2, Calu-3, read-out: EC50 ± SD, Calu‐3 cells, with P‐gp inhibitor), less than 46 nM; in [2] (Severe acute respiratory syndrome coronavirus 2, Calu-3, read-out: EC50 ± SD, Calu‐3 cells, without P‐gp inhibitor), 1000 ± 31 nM; in [2] (Severe acute respiratory syndrome coronavirus 2, Calu-3, read-out: EC50 ± SD, SARS‐CoV‐2 Wild‐type) it was 2780 nM; in [12] it was 3700 ± 598 nM; in data set [4] (Severe acute respiratory syndrome coronavirus 2, Vero, read-out: EC50 ± SD, Vero cells, with P‐gp inhibitor) it was less than 46 nM. For the same compound, the EC50 in data set [4] (Severe acute respiratory syndrome coronavirus 2, Vero, read-out: EC50 ± SD, Vero cells, without P‐gp inhibitor) was 2080 ± 214 nM; in data set [14], 58 nM; in data set [15], 3390 ± 245 nM; in data set [16], less than 46 nM; in [18], 378 nM; in [19] it was 3430 ± 519 nM. In data set [20], the EC50 is more than 100000 nM. Besides, the Cmax (in general, the maximum level reached in the sampled fluid or tissue) in [17] (10 mg/kg, Cmax, p.o. in combination with ritonavir) came to 7450 ± 715 ng/mL. The mean residence time MRT (commonly the average time that molecules of a dose stay in the body) turned out to be 1.55 ± 0.051 h in [17] (10 mg/kg, MRT0‐t, p.o. in combination with ritonavir) and 1.55 ± 0.055 h in data set [17] (10 mg/kg, MRT0‐∞, p.o. in combination with ritonavir). Moreover, the half-life (as a rule, how long it takes for the measured level to halve) in [17] (10 mg/kg, t1/2, p.o. in combination with ritonavir) is 0.692 ± 0.204 h. The area under the curve (AUC) (usually the area under the concentration-time curve, a measure of exposure) in data set [17] (AUC0‐t, p.o. in combination with ritonavir) was 14600 ng·h/mL.
